Measurements published in patent US6897316B2, “Substituted 2-phenyl-4-quinolone-3-carboxylic acid compounds and their use as antitumor agents” (China Medical University, priority 2003, dated 2005).

Experiments:
HGC2998 (colon cancer) = experiment: Growth inhibition in human cancer cell line panel, HGC2998; type: cell-based; settings: 48 hr, SRB
Description: (§1) Compound IX-8 was evaluated growth inhibition activities against a panel of 39 human cancer cell lines including Human breast cancer MDA-MB-231 and the following human cancer cell lines were generously distributed by the National Cancer Institute (Frederick, Md.): lung cancer, NCI-H23, NCI-H226, NCI-H522, NCI-H460, A-549, DMS273 and DMS114; colon cancer, HGC-2998, KM-12, HT-29, HCT-15, and HCT-116; ovarian cancer, OVCAR-3, OVCAR-4, OVCAR-5, OVCAR-8, and SKOV-3; breast cancer, MCF-7; renal cancer, RXF-631L and ACHN; melanoma, LOX-IMVI; brain tumor, U251, SF-295, SF-539, SF-268, SNB-75, and SNB-78, and prostate cancer, DU-145 and PC-3. […]
(§2) The details of measuring cell growth inhibition are described elsewhere [Monks, A., Scudiero, D., Skehan, P., Shoemaker, R., Paull, K., Vistica, D., Hose, C., Langley, J., Cronise, P., Vaigro-Wolff, A., Gray-Goodrich, M., Campbell, H., Mayo, J., Boyd, M. Feasibility of a high-flux anticancer drug screen using a diverse panel of cultured human tumor cell lines. […] Then, the cell growth was determined according to the Sulforhodamine B assay, described by Skehan et al [Skehan, P., Storeng, R., Scudiero, D., Monks, A., McMahon, J., Vistica, D., Warren, J. T., Bokesch, H., Kenney, S., Boyd, M. R. New calorimetric cytotoxicity assay for anticancer-drug screening. […]

OVCAR-4 (ovarian cancer) = experiment: Growth inhibition in human cancer cell line panel, OVCAR-4; type: cell-based; settings: 48 hr, SRB
Description: as §1, §2

## COc1ccc2[nH]c(-c3cccc(F)c3)c(C(=O)O)c(=O)c2c1 [IX-8, 3′-Fluoro-6-methoxy-2-phenyl-4-quinolone-3-carboxylic acid]
HGC2998 (colon cancer)
  GI50: 138 nM
OVCAR-4 (ovarian cancer)
  GI50: 174 nM
other
  melting point: 268 °C (dec.)
